This note sets out measurements from patent publication US11203600B2 (Denali Therapeutics Inc., priority 2017, dated 2021).

In this assay the target is GST-hRIPK1 (8-327) (Homo sapiens (Human), UniProt Q13546). Description: Fluorescent Polarization Binding (FP Binding) assay, RIPK1. Particulars: 10 nM GST-hRIPK1 (8-327), 5 nM fluorescent-labeled ligand, RT, 30 min, mean of at least two independent experiments. Put shortly: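 Binding by fluorescence polarisation at RT: 10 nM baculovirus-expressed GST-hRIPK1 (8-327) and 5 nM fluorescent ligand, 30 min, in 50 mM HEPES pH 7.5, 50 mM MgCl2, 0.02% CHAPS, 1% DMSO. FP read at ex 531/em 595 nm. IC50 from normalised percent inhibition, mean of ≥2 experiments.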
Sequence of GST-hRIPK1 (8-327) (Q13546 8-327): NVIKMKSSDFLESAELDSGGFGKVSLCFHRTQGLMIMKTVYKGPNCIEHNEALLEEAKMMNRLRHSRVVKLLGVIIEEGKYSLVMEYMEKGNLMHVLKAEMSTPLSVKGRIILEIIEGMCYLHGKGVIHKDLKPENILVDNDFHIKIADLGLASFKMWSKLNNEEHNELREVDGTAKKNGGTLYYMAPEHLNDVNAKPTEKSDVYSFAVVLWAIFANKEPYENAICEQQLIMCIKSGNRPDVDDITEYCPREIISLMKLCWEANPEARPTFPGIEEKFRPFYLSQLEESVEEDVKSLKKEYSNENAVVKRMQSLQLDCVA

For the molecule `COc1nc(N2CCC(C(=O)N3Cc4cncc(C#N)c4OC[C@H]3C)CC2)ncc1F` [Example 120, (3R)-4-(1-(5-fluoro-4-methoxypyrimidin-2-yl)piperidine-4-carbonyl)-3-methyl-2,3,4,5-tetrahydropyrido[3,4-f][1,4]oxazepine-9-carbonitrile], the IC50 is 0.1 to 100 nM.

`COC1(C(=O)N2CCOc3c(F)cncc3C2)CCN(c2ncc(F)cn2)CC1` [Example 121] gave an IC50 of 0.1 to 100 nM.

`COc1nc(N2CCC(OC)(C(=O)N3CCOc4c(F)cncc4C3)CC2)ncc1F` [Example 122, (9-fluoro-3,5-dihydro-2H-pyrido[3,4-f][1,4]oxazepin-4-yl)-[1-(5-fluoro-4-methoxy-pyrimidin-2-yl)-4-methoxy-4-piperidyl]methanone] had an IC50 of 0.1 to 100 nM.

For the molecule `CNc1nc(N2CCC(F)(C(=O)N3CCOc4c(C#N)cncc4C3)CC2)ncc1F` [Example 123, 4-[4-fluoro-1-[5-fluoro-4-(methylamino)pyrimidin-2-yl]piperidine-4-carbonyl]-3,5-dihydro-2H-pyrido[3,4-f][1,4]oxazepine-9-carbonitrile], the IC50 lay within 100 to 1000 nM.

In the case of `N#Cc1cncc2c1OCCN(C(=O)C1(F)CCN(c3ncc(F)c(NC4CC4)n3)CC1)C2` [Example 124, 4-[1-[4-(cyclopropylamino)-5-fluoro-pyrimidin-2-yl]-4-fluoro-piperidine-4-carbonyl]-3,5-dihydro-2H-pyrido[3,4-f][1,4]oxazepine-9-carbonitrile], the IC50 lay in the range of 0.1 to 100 nM.

Molecule `N#Cc1cncc2c1OCCN(C(=O)C1(F)CCN(c3ncc(F)c(OCC(F)F)n3)CC1)C2` [Example 125, 4-[1-[4-(2,2-difluoroethoxy)-5-fluoro-pyrimidin-2-yl]-4-fluoro-piperidine-4-carbonyl]-3,5-dihydro-2H-pyrido[3,4-f][1,4]oxazepine-9-carbonitrile] came in with an IC50 of 0.1 to 100 nM.

In the case of `CSc1nc(N2CCC(F)(C(=O)N3CCOc4c(C#N)cncc4C3)CC2)ncc1F` [Example 126, 4-[4-fluoro-1-(5-fluoro-4-methylsulfanyl-pyrimidin-2-yl)piperidine-4-carbonyl]-3,5-dihydro-2H-pyrido[3,4-f][1,4]oxazepine-9-carbonitrile], the IC50 fell in the range of 0.1 to 100 nM.

On to `CN(C)CCCOc1nc(N2CCC(F)(C(=O)N3CCOc4c(C#N)cncc4C3)CC2)ncc1F` [Example 127, 4-[1-[4-[3-(dimethylamino)propoxy]-5-fluoro-pyrimidin-2-yl]-4-fluoro-piperidine-4-carbonyl]-3,5-dihydro-2H-pyrido[3,4-f][1,4]oxazepine-9-carbonitrile], for which the IC50 fell in the range of 100 to 1000 nM.

As to `COc1nc(N2CCC(F)(C(=O)N3CCOc4c(C#N)cncc4C3)CC2)ncc1Cl` [Example 128, 4-[1-(5-chloro-4-methoxy-pyrimidin-2-yl)-4-fluoro-piperidine-4-carbonyl]-3,5-dihydro-2H-pyrido[3,4-f][1,4]oxazepine-9-carbonitrile], the IC50 was 0.1 to 100 nM.

In turn, `COc1nc(N2CCC(C(=O)N3CCOc4c(C#N)cncc4C3)CC2)ncc1Cl` [Example 129, 4-[1-(5-chloro-4-methoxy-pyrimidin-2-yl)piperidine-4-carbonyl]-3,5-dihydro-2H-pyrido[3,4-f][1,4]oxazepine-9-carbonitrile] had an IC50 of 0.1 to 100 nM.

`COCCOc1nc(N2CCC(C(=O)N3CCOc4c(F)cncc4C3)CC2)ncc1F` [Example 130, (9-fluoro-3,5-dihydro-2H-pyrido[3,4-f][1,4]oxazepin-4-yl)-[1-[5-fluoro-4-(2-methoxyethoxy)pyrimidin-2-yl]-4-piperidyl]methanone] displayed an IC50 of 0.1 to 100 nM.

Molecule `N#Cc1cncc2c1OCCN(C(=O)C1CCN(c3ncc(F)c(OCC(F)F)n3)CC1)C2` [Example 131, 4-(1-(4-(2,2-difluoroethoxy)-5-fluoropyrimidin-2-yl)piperidine-4-carbonyl)-2,3,4,5-tetrahydropyrido[3,4-f][1,4]oxazepine-9-carbonitrile] showed an IC50 of 0.1 to 100 nM.

Molecule `COC1(C(=O)N2CCOc3c(F)cncc3C2)CCN(c2ncc(F)c(OCC(F)F)n2)CC1` [Example 132, (1-(4-(2,2-difluoroethoxy)-5-fluoropyrimidin-2-yl)-4-methoxypiperidin-4-yl)(9-fluoro-2,3-dihydropyrido[3,4-f][1,4]oxazepin-4(5H)-yl)methanone] returned an IC50 of 0.1 to 100 nM.

`N#Cc1cncc2c1OCCN(C(=O)C1CCN(c3nccc(OCC(F)F)n3)CC1)C2` [Example 133, 4-[1-[4-(2,2-difluoroethoxy)pyrimidin-2-yl]piperidine-4-carbonyl]-3,5-dihydro-2H-pyrido[3,4-f][1,4]oxazepine-9-carbonitrile] came in with an IC50 of 100 to 1000 nM.

`COC1(C(=O)N2CCOc3c(F)cncc3C2)CCN(c2nccc(OCC(F)F)n2)CC1` [Example 134, [1-[4-(2,2-difluoroethoxy)pyrimidin-2-yl]-4-methoxy-4-piperidyl]-(9-fluoro-3,5-dihydro-2H-pyrido[3,4-f][1,4]oxazepin-4-yl)methanone] had an IC50 of 100 to 1000 nM.

For the molecule `COC1(C(=O)N2CCOc3c(F)cncc3C2)CCN(c2ncccn2)CC1` [Example 135, (9-fluoro-3,5-dihydro-2H-pyrido[3,4-f][1,4]oxazepin-4-yl)-(4-methoxy-1-pyrimidin-2-yl-4-piperidyl)methanone], the IC50 was 0.1 to 100 nM.

In turn, `COC1(C(=O)N2CCOc3c(F)cncc3C2)CCN(c2ncc(F)c(OCCN(C)C)n2)CC1` [Example 136] registered an IC50 greater than 1000 nM.

`N#Cc1cncc2c1OCCN(C(=O)C1(CF)CCN(c3ncc(F)cn3)CC1)C2` [Example 137, 4-(4-(fluoromethyl)-1-(5-fluoropyrimidin-2-yl)piperidine-4-carbonyl)-2,3,4,5-tetrahydropyrido[3,4-f][1,4]oxazepine-9-carbonitrile] had an IC50 of 100 to 1000 nM.

In the case of `CC1(C(=O)N2CCOc3c(C#N)cncc3C2)CC(F)(F)C1` [Example 138, 4-(3,3-difluoro-1-methyl-cyclobutanecarbonyl)-3,5-dihydro-2H-pyrido[3,4-f][1,4]oxazepine-9-carbonitrile], the IC50 is 100 to 1000 nM.

Molecule `N#Cc1cncc2c1OCCN(C(=O)C1(C(F)F)CC1)C2` [Example 139, 4-[1-(difluoromethyl)cyclopropanecarbonyl)-3,5-dihydro-2H-pyrido[3,4-f][1,4]oxazepine-9-carbonitrile] gave an IC50 greater than 1000 nM.

`N#Cc1cncc2c1OCCN(C(=O)C1(F)CC1)C2` [Example 140, 4-(1-fluorocyclopropanecarbonyl)-3,5-dihydro-2H-pyrido[3,4-f][1,4]oxazepine-9-carbonitrile] registered an IC50 greater than 1000 nM.

Regarding `CC(CC(F)(F)F)C(=O)N1CCOc2c(C#N)cncc2C1` (stereo not shown) [Example 141, 4-(4,4,4-trifluoro-2-methyl-butanoyl)-3,5-dihydro-2H-pyrido[3,4-f][1,4]oxazepine-9-carbonitrile], the IC50 lay within 100 to 1000 nM.

In turn, `CC(F)(F)C(C)(C)C(=O)N1CCOc2c(C#N)cncc2C1` [Example 142, 4-(3,3-difluoro-2,2-dimethyl-butanoyl)-3,5-dihydro-2H-pyrido[3,4-f][1,4]oxazepine-9-carbonitrile] returned an IC50 of 0.1 to 100 nM.

Regarding `N#Cc1cncc2c1OCCN(C(=O)C(F)(F)C(F)(F)C(F)(F)F)C2` [Example 143, 4-(2,2,3,3,4,4,4,-heptafluorobutanoyl)-3,5-dihydro-2H-pyrido[3,4-f][1,4]oxazepine-9-carbonitrile], the IC50 was greater than 1000 nM.

Take `CC(C)(CF)C(=O)N1CCOc2c(C#N)cncc2C1` [Example 144, 4-(3-fluoro-2,2-dimethyl-propanoyl)-3,5-dihydro-2H-pyrido[3,4-f][1,4]oxazepine-9-carbonitrile]: the IC50 was 0.1 to 100 nM.

In turn, `CC(C)C(C)(C)C(=O)N1CCOc2c(C#N)cncc2C1` [Example 145, 4-(2,2,3-trimethylbutanoyl)-3,5-dihydro-2H-pyrido[3,4-f][1,4]oxazepine-9-carbonitrile] had a concentration for half-maximal inhibition (IC50) of 0.1 to 100 nM.

`CC(C(=O)N1CCOc2c(C#N)cncc2C1)C1CC1` (stereo not shown) [Example 146, 4-(2-cyclopropylpropanoyl)-3,5-dihydro-2H-pyrido[3,4-f][1,4]oxazepine-9-carbonitrile] showed an IC50 of 100 to 1000 nM.

`CC(CF)(CF)C(=O)N1CCOc2c(C#N)cncc2C1` [Example 147, 4-[3-fluoro-2-(fluoromethyl)-2-methyl-propanoyl]-3,5-dihydro-2H-pyrido[3,4-f][1,4]oxazepine-9-carbonitrile] came in with an IC50 of 0.1 to 100 nM.

On to `CSC(C)(C)C(=O)N1CCOc2c(C#N)cncc2C1` [Example 148, 4-(2-methyl-2-methylsulfanyl-propanoyl)-3,5-dihydro-2H-pyrido[3,4-f][1,4]oxazepine-9-carbonitrile], for which the IC50 fell in the range of 0.1 to 100 nM.

`CC(C)(CC(F)F)C(=O)N1CCOc2c(C#N)cncc2C1` [Example 149, 4-(4,4-difluoro-2,2-dimethyl-butanoyl)-3,5-dihydro-2H-pyrido[3,4-f][1,4]oxazepine-9-carbonitrile] registered an IC50 of 100 to 1000 nM.

In turn, `COCC(C)(C)C(=O)N1CCOc2c(C#N)cncc2C1` [Example 150, 4-(3-methoxy-2,2-dimethyl-propanoyl)-3,5-dihydro-2H-pyrido[3,4-f][1,4]oxazepine-9-carbonitrile] registered a 50% inhibitory concentration (IC50) of 100 to 1000 nM.

Molecule `CCC(C)(CC)C(=O)N1CCOc2c(C#N)cncc2C1` [Example 151, 4-(2-ethyl-2-methyl-butanoyl)-3,5-dihydro-2H-pyrido[3,4-f][1,4]oxazepine-9-carbonitrile] registered an IC50 of 0.1 to 100 nM.

On to `CC(C(=O)N1CCOc2c(C#N)cncc2C1)(C(F)(F)F)C(F)(F)F` [Example 152, 4-[3,3,3-trifluoro-2-methyl-2-(trifluoromethyl)propanoyl]-3,5-dihydro-2H-pyrido[3,4-f][1,4]oxazepine-9-carbonitrile], for which the IC50 was 100 to 1000 nM.

In the case of `CCC(C)(OC)C(=O)N1CCOc2c(C#N)cncc2C1` (stereo not shown) [Example 153, 4-(2-methoxy-2-methyl-butanoyl)-3,5-dihydro-2H-pyrido[3,4-f][1,4]oxazepine-9-carbonitrile], the IC50 was 0.1 to 100 nM.

The IC50 is the concentration at which inhibition is half-maximal. A low value points to higher potency.
